# Source: US20150276568A1 (priority 2012, published 2015)
# Columns and labels:
# [1] = format: physicochemical; conditions: extraction time varied 0-60 minutes; dihexyl ether; 900 rpm
# [2] = from reference [17]; cited from earlier work
SMILES,Extraction time for PALME system to enter equilibrium [1],Therapeutic range [2]
O=C(CCCN1CCC(O)(c2ccc(Cl)cc2)CC1)c1ccc(F)cc1 [Haloperidol],15 min,–
CCC(=O)C(CC(C)N(C)C)(c1ccccc1)c1ccccc1 (centres unmarked) [Methadone],15 min,100 to 500 ng/mL
CNCCC=C1c2ccccc2CCc2ccccc21 [Nortriptyline],30 min,–
CCOC(=O)C1(c2ccccc2)CCN(C)CC1 [Pethidine],–,100 to 800 ng/mL
